Test [1] addresses T1, human Glyceraldehyde 3-Phosphate Dehydrogenase (HsGAPDH) (Homo sapiens, UniProt P04406).
T1 construct: gene GAPDH; N-terminally His-tagged human GAPDH, expressed in E. coli
The test can be described thus: UV photoaffinity crosslinking ([…]) with anti-SA immunoblot. The class given is binding.

Test [2] concerns the target T1, human Glyceraldehyde 3-Phosphate Dehydrogenase (HsGAPDH). Description: SPR competition with immobilized 3AESA; competition of 4AzSA photoaffinity crosslinking. Type of test: binding.

T1 sequence (P04406 whole entry): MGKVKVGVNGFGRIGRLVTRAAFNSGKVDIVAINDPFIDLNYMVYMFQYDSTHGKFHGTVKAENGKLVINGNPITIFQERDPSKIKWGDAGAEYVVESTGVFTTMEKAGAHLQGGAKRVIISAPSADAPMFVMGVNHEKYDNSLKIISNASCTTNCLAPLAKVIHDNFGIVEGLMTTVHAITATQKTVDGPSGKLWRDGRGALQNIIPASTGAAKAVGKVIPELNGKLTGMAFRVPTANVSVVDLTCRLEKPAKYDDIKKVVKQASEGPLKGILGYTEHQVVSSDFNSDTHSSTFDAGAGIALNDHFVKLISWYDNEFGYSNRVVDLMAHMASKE

As for `[N-]=[N+]=Nc1ccc(C(=O)O)c(O)c1` [4AzSA, 4-azido salicylic acid], the “UV photoaffinity crosslinking (0.05 mM) with anti-SA immunoblot” value in test [1] is “Recombinant HsGAPDH crosslinked with 4AzSA, and this crosslinking was suppressed in the presence of increasing levels of SA”.

Regarding `O=C(O)c1ccccc1O` [SA, Salicylic acid], in test [2], the “SPR competition with immobilized 3AESA; competition of 4AzSA photoaffinity cross” value was “suppression of this interaction required millimolar concentrations of SA (Fig 2B)”.

Values taken from article PMC4659538, “Human GAPDH Is a Target of Aspirin’s Primary Metabolite Salicylic Acid and Its Derivatives” (PLoS ONE, 2015).
